According to article PMC10528385 (Antiviral research, 2023):

Legend:
[1] = target: NA of A/Bethesda/956/2006 A(H3N2), NA-R292K (Influenza A virus, UniProt F1KL32, R292K); format: biochemical; settings: read-out: Susceptibility to NAIs, mean IC50 ± SD
[2] = target: NA of A/Texas/12/2007 A(H3N2), NA-E119V (Influenza A virus, UniProt D1FVK3, I119V); assay: biochemical

`CC(=O)N[C@H]1[C@H]([C@H](O)[C@H](O)CO)OC(C(=O)O)=C[C@@H]1N=C(N)N` [Zanamivir, zanamivir] gave an IC50 [1] of 10.6 ± 1.4 nM and an IC50 [2] of 1.3 nM.
